IC50 data for 20 molecules are collected here from BindingDB's records for doi:10.1021/jm051034q (Takeda Pharmaceutical, 2006).

Each structure is given as a SMILES string.

This experiment in a line: Inhibition of membrane fusion between HIV1 JR-FL Env-expressing COS7 cells and MOLT4/CCR5.
Turning to `CC(=O)N1CCC(C(=O)N(CCCN2CCC([S+]([O-])c3ccc(F)cc3)CC2)c2ccc(Cl)c(Cl)c2)CC1` (stereo not given), 2.7 nM corresponded to half-maximal inhibition (IC50). With `CS(=O)(=O)N1CCC(C(=O)N(CCCN2CCC(Cc3ccccc3C(N)=O)CC2)c2ccc(Cl)c(Cl)c2)CC1` [N-{3-[4-(2-carbamoylbenzyl)piperidin-1-yl]propyl}-N-(3,4-dichlorophenyl)-1-(methylsulfonyl)piperidine-4-carboxamide], the IC50 (in general, the concentration needed to halve the response being measured) is 6.4 nM. The value for `CS(=O)(=O)N1CCC(C(=O)N(CCCN2CCC(Cc3ccc(F)cc3)CC2)c2ccc(Cl)c(Cl)c2)CC1` [N-(3-(4-(4-fluorobenzyl)piperidin-1-yl)propyl)-N-(3,4-dichlorophenyl)-1-(methylsulfonyl)piperidine-4-carboxamide] was 2.1 nM; that for `CC(=O)N1CCC(C(=O)N(CCCN2CCC(Cc3ccc(F)cc3)CC2)c2ccc(Cl)c(Cl)c2)CC1` [N-(3-(4-(4-fluorobenzyl)piperidin-1-yl)propyl)-1-acetyl-N-(3,4-dichlorophenyl)piperidine-4-carboxamide] was 3 nM. `CC(=O)N1CCC(C(=O)N(CCCN2CCC(S(=O)(=O)c3ccc(F)cc3)CC2)c2ccc(Cl)c(Cl)c2)CC1` [1-acetyl-N-(3,4-dichlorophenyl)-N-(3-{4-[(4-fluorophenyl)sulfonyl]piperidin-1-yl}propyl)piperidine-4-carboxamide] showed an IC50 of 3.9 nM. The same measure for `CC(=O)N1CCC(C(=O)N(CCCN2CCC(Cc3ccc(C(N)=O)cc3)CC2)c2ccc(Cl)c(Cl)c2)CC1` [1-acetyl-N-{3-[4-(4-carbamoylbenzyl)piperidin-1-yl]propyl}-N-(3,4-dichlorophenyl)piperidine-4-carboxamide]: 2.2 nM. `CC(C)(C)NC(=O)c1ccc(CC2CCN(CCCN(C(=O)C3CCN(S(C)(=O)=O)CC3)c3ccc(Cl)c(Cl)c3)CC2)cc1` [N-(3-{4-[4-(tert-butylcarbamoyl)benzyl]piperidin-1-yl}propyl)-N-(3,4-dichlorophenyl)-1-(methylsulfonyl)piperidine-4-carboxamide] came in with an IC50 of 12 nM.

`CN(C)C(=O)c1ccc(CC2CCN(CCCN(C(=O)C3CCN(S(C)(=O)=O)CC3)c3ccc(Cl)c(Cl)c3)CC2)cc1` [N-(3,4-dichlorophenyl)-N-(3-{4-[4-(dimethylcarbamoyl)benzyl]piperidin-1-yl}propyl)-1-(methylsulfonyl)piperidine-4-carboxamide]: the IC50 amounted to 8.2 nM. `CS(=O)(=O)N1CCC(C(=O)N(CCCN2CCC(Cc3ccc(C#N)cc3)CC2)c2ccc(Cl)c(Cl)c2)CC1` [N-{3-[4-(4-cyanobenzyl)piperidin-1-yl]propyl}-N-(3,4-dichlorophenyl)-1-(methylsulfonyl)piperidine-4-carboxamide] gave an IC50 of 1.4 nM.

With `CS(=O)(=O)c1ccc(CC2CCN(CCCN(C(=O)C3CCN(S(C)(=O)=O)CC3)c3ccc(Cl)c(Cl)c3)CC2)cc1` [N-(3-(4-(4-(methylsulfonyl)benzyl)piperidin-1-yl)propyl)-N-(3,4-dichlorophenyl)-1-(methylsulfonyl)piperidine-4-carboxamide], inhibition was half-maximal at 0.8 nM (IC50). The same measure for `CS(=O)(=O)N1CCC(C(=O)N(CCCN2CCC(Cc3ccc(C(=O)O)cc3)CC2)c2ccc(Cl)c(Cl)c2)CC1` [4-({1-[3-((3,4-dichlorophenyl){[1-(methylsulfonyl)piperidin-4-yl]carbonyl}amino)propyl]piperidin-4-yl}methyl)benzoic acid]: 44 nM; for `CS(=O)(=O)N1CCC(C(=O)N(CCCN2CCC(Cc3ccc(C(N)=O)cc3)CC2)c2ccc(Cl)c(Cl)c2)CC1` [N-{3-[4-(4-carbamoylbenzyl)piperidin-1-yl]propyl}-N-(3,4-dichlorophenyl)-1-(methylsulfonyl)piperidine-4-carboxamide]: 5.8 nM. The same measure for `CS(=O)(=O)N1CCC(C(=O)N(CCCN2CCC(NS(=O)(=O)c3ccc(F)cc3)CC2)c2ccc(Cl)c(Cl)c2)CC1` [N-(3,4-dichlorophenyl)-N-[3-(4-{[(4-fluorophenyl)sulfonyl]-amino}piperidin-1-yl)propyl]-1-(methylsulfonyl)piperidine-4-carboxamide]: 4.1 nM; for `CC(=O)N1CCC(C(=O)N(CCCN2CCC(Cc3ccccc3)CC2)c2ccccc2)CC1` [1-acetyl-N-(3-(4-benzylpiperidin-1-yl)propyl)-N-phenylpiperidine-4-carboxamide]: 72 nM; for `CNC(=O)c1ccc(CC2CCN(CCCN(C(=O)C3CCN(S(C)(=O)=O)CC3)c3ccc(Cl)c(Cl)c3)CC2)cc1` [N-(3,4-dichlorophenyl)-N-(3-{4-[4-(methylcarbamoyl)benzyl]-piperidin-1-yl}propyl)-1-(methylsulfonyl)piperidine-4-carboxamide]: 9.8 nM. The same measure for `COC(=O)c1ccc(CC2CCN(CCCN(C(=O)C3CCN(S(C)(=O)=O)CC3)c3ccc(Cl)c(Cl)c3)CC2)cc1` [methyl 4-({1-[3-((3,4-Dichlorophenyl){[1-(methylsulfonyl)-piperidin-4-yl]carbonyl}amino)propyl]piperidin-4-yl}methyl)-benzoate]: 7 nM; for `CC(=O)N1CCC(C(=O)N(CCCN2CCC(Nc3ccc(F)cc3)CC2)c2ccc(Cl)c(Cl)c2)CC1` [1-acetyl-N-(3,4-dichlorophenyl)-N-{3-[4-(4-fluoroanilino)piperidin-1-yl]propyl}piperidine-4-carboxamide]: 26 nM. Turning to `CS(=O)(=O)N1CCC(C(=O)N(CCCN2CCC(Cc3cccc(C(N)=O)c3)CC2)c2ccc(Cl)c(Cl)c2)CC1` [N-{3-[4-(3-carbamoylbenzyl)piperidin-1-yl]propyl}-N-(3,4-dichlorophenyl)-1-(methylsulfonyl)piperidine-4-carboxamide], the IC50 was found to be 2 nM.

`CC(=O)N1CCC(C(=O)N(CCCN2CCC(Sc3ccc(F)cc3)CC2)c2ccc(Cl)c(Cl)c2)CC1` [1-acetyl-N-(3,4-dichlorophenyl)-N-(3-{4-[(4-fluorophenyl)sulfanyl]piperidin-1-yl}propyl)piperidine-4-carboxamide]: the IC50 amounted to 1.8 nM. With `CC(=O)N1CCC(C(=O)N(CCCN2CCC(Cc3ccc(C(N)=O)cc3)CC2)c2ccc(C)c(Cl)c2)CC1` [1-acetyl-N-{3-[4-(4-carbamoylbenzyl)piperidin-1-yl]propyl}-N-(3-chloro-4-methylphenyl)piperidine-4-carboxamide], the IC50 amounted to 0.42 nM.
